Results reported in US7208469B2, “Therapeutic method” (Auckland UniServices Limited, priority 1997, dated 2007).
Positions of bridges follow the written chain, without caps; N, C: chain ends. No end group written: not given here.

Columns and labels:
[1] = system: chondrocytes; assay: Chondrocyte monolayer cell cultures: proliferation (cell counts and [3H]-thymidine incorporation); format: cell-based, dog; conditions: 24 hours
Protocol: Fresh cartilage samples were collected from the tibial plateaus and femoral condyles of mature, healthy crossbred dogs (2–4 years; 20–25 kg). The chondrocytes were isolated as previously described (Connective Tissue Research 1988; 18:205–222). Briefly, the chondrocytes were obtained by pronase and collagenase digestion of the cartilage, then the cells were centrifuged, washed and resuspended in media before being cultured in 75 cm^2 tissue culture flasks. The cells were incubated under 5% CO2 and 95% air at 37° C. Confluence was reached by 7–10 days, at which time the cells were subcultured. After trypsinization, the cells are rinsed and resuspended in fresh medium, then seeded at 5×10^4 cells/ml in 24-well plates (0.5 ml cell suspension per well, ie. 1.4×10^4 cells/cm^2). Proliferation studies (cell counts and thymidine incorporation) were performed. Subconfluent population were changed to serum-free medium with 0.1% bovine serum albumin plus the experimental compounds. Cell numbers were analysed at 24 hours after addition of the peptide or vehicle. The cell numbers were determined using a haemocytometer chamber. Results were expressed per well. [^3H]-thymidine incorporation was assessed by pulsing the cells with [^3H]-thymidine (1 uCi/well) two hours before the end of the experimental incubation. The experiment was terminated at 24 hours by washing the cells in media containing cold thymidine followed by the addition of 10% tricholoroacetic acid. The precipitate was washed twice with ethanol:ether (3:1) and the wells desiccated at room temperature. The residue was redissolved in 2 M KOH at 55° C. for 30 mins, neutralised with 1 M HCl, and an aliquot counted for radioactivity. Results were expressed as dpm per well. For both cell counts and thymidine incorporation, each experiment was performed at least 4 different times using experimental groups consisting of at least 6 wells.

[2] = system: tibiae of normal adult male mice; assay: In vivo study: daily subcutaneous injection in mice, tibial growth plate width and tibial length; conditions: male Swiss mice, 300 ug/kg/injection s.c., 5 days/week for 4 weeks; for tibial (epiphyseal) growth plate width: mean±sem, controls 0.081-0.094 mm
Protocol: Two groups of 20 sexually mature male Swiss mice aged between 40 and 50 days and weighing 25–32 g, were given daily subcutaneous injections (50 ul) in the loose skin at the nape of the neck for 5 days/week over 4 consecutive weeks. The treated group was injected with peptide at a dose of 300 ug/kg/injection and the control group was injected with vehicle (water). Animals were housed in a room maintained at 20° C. on 12-hour light/dark cycles. They were fed diet 86 rodent pellets (New Zealand Stockfeed Ltd) ad libitum throughout the experiment. Each animal's weight was recorded at the beginning and end of the experiment. One day after the last injection, animals were sacrificed by cervical dislocation. They study had the approval of the local institutional review board.
The tibiae were dissected free of adherent tissue. Tibial lengths were recorded by measuring the distance between the proximal epiphysis and the distal tibio-fibular junction using an electronic micrometer (Digimatic Calipers, Mitutoyo, Japan). Bones were placed in 10% phosphate-buffered formalin for 24 hours and then dehydrated in a graded series of ethanol solutions and embedded, undecalcified, in methylmethacrylate resin. Tibiae were sectioned longitudinally through the frontal plane and calvariae were cut cross-sectionally at the base of the parietal bone. All sections were 4 um think and were cut on a Leitz microtome using a tungsten-carbide knife (Microknife Sharpening, Utah, USA). Sections were mounted on gelatin-coated slides and air-dried. They were stained with Goldner's tri-chrome and examined using an Olympus BX 50 microscope (Olympus Optical Co Ltd, Tokyo, Japan) which was attached to an Osteomeasure Image Analyzer (Osteometrics Inc. Atlanta, Ga.).
Tibial histomorphometric analyses were made from three adjacent sections one third of the way through the anterior/posterior depth of the proximal tibiae. Epiphyseal growth plate thickness was measured at three sites evenly spaced along its length. All measurements were made by one operator who was blinded to the treatment group of each bone.

[3] = system: chondrocytes; assay: Chondrocytes 3-dimensional cell cultures in alginate beads: proliferation (cell counts and 3H-thymidine incorporation); format: cell-based, dog
Protocol: Alginate head cultures were established as described by Guo, et al. Culture and growth characteristics of chondrocytes encapsulated in alginated beads. Connective Tissue Research 19:277–297 (1989). Briefly the cells were suspended in a solution of 1.25% (wt/vol) alginate in HEPES (20 mM HEPES buffer pH neutral) at a density of 2×10^6 cells/ml> The suspension of chondrocytes were slowly extruded through a 22-gauge needle in a dropwise manner into 40 ml of 0.1 M CaCl2 solution. After instantaneous gelation, the beads were allowed to further polymerise in CaCl2 solution (10 mins, room temperature). The beads were washed sequentially, twice in 0.15 M NaCl and twice in Dulbecco's modified Eagle's medium (DME). After the washing procedure, the beads were placed into 24-well culture plates (10 beads/well) and fed with 1 ml 10% fetal calf serum (FCS) SMW with 5μg/ml ascorbic acid. The cultures were maintained at 37° C. in a humidified atmosphere of 5% CO2 in air. The medium was changed every second day. […] Cell numbers were analysed at day 8 by exposing alginate beads to 50 mM ethylenediaminetetraacetic acid (EDTA) for approximately 10 minutes at 37° C. […] Tritiated-thymidine incorporation (^3H-thymidine) was assessed by pulsing the beads with ^3H-thymidine (1μCi/well) 48 hours before the end of experimental incubation. […] Pellets were resuspended and counted for radioactivity.

Substance: Amylin-(1–8) (KCNTATCA-NH2; disulfide 2-7 (inferred); listed as Rattus norvegicus)
- cell numbers ([1]; peptide 10–8M, control 3.23±0.11, p=0.02): 3.63±0.09 ×10^4
- thymidine incorporation (DNA synthesis) ([1]; peptide 10–8M, control 26859±423, p=0.02): 28932±628 dpm
- tibial (epiphyseal) growth plate width [2]: 0.111 mm

Substance: Adrenomedullin-(27–52) (AHQIYQFTDKDKDNVAPRSKISPQGY; listed as Homo sapiens)
- tibial (epiphyseal) growth plate width [2]: 0.11 mm

Substance: Amylin (KCNTATCATQRLANFLVHSSNNFGAILSSTNVGSNTY; listed as Rattus norvegicus) [rat amylin sourced from Bachem California]
- thymidine incorporation (DNA synthesis) ([3]; day 8, peptide 10^−10M, control 1135±85, p<0.001): 2584±229 dpm
- cell numbers ([3]; day 8, per well, peptide 10^−10M, control 5.58±0.16, p<0.03): 6.07±0.05 ×10^4
- thymidine incorporation (DNA synthesis) ([1]; per well, amylin concentration not given, control 20725±997): 25937±1203 dpm
- cell numbers ([1]; per well, mean±sem, amylin concentration not given, control 4.12±0.23, p=0.01): 5.11±0.21 ×10^4
- tibial (epiphyseal) growth plate width [2]: 0.108±0.003 mm
- total length of the tibiae ([2]; control 11.31±0.07): 11.67±0.09 mm

Substance: Adrenomedullin (YRQSMNNFQGLRSFGCRFGTCTVQKLAHQIYQFTDKDKDNVAPRSKISPQGY-NH2; disulfide 16-21 (inferred); ends not checked; UniProt P35318 95-146, looked up) [52-amino acid peptide first described by Kitamura et al; synthesized by solid-phase procedures]
- cell numbers ([1]; peptide 10^−9M, control 1.79±0.07, p<0.01): 2.27±0.12 ×10^4
